From ChEMBL document CHEMBL3885881, “DrugMatrix”

Species: Rattus norvegicus
Test: DrugMatrix - Regimen: Daily Repeat
Assay type: toxicity, organism-based, Sprague-Dawley
Design: regimen Daily Repeat, gender Male, age 6-8 weeks
Settings: in vivo, po, route oral GAVAGE, vehicle 100 % WATER; for ABSOLUTE BASOPHIL / ABSOLUTE EOSINOPHIL / ABSOLUTE LYMPHOCYTE / ABSOLUTE MONOCYTE / ABSOLUTE SEGMENTED NEUTROPHIL / BASOPHIL / EOSINOPHIL / ERYTHROCYTE COUNT / HEMATOCRIT / HEMOGLOBIN / LEUKOCYTE COUNT / LYMPHOCYTE / MEAN CORPUSCULAR HEMOGLOBIN / MEAN CORPUSCULAR HEMOGLOBIN CONCENTRATION / MEAN CORPUSCULAR VOLUME / MONOCYTE / NEUTROPHIL / NUCLEATED RED BLOOD CELLS / PLATELET COUNT: tissue Blood; for ALANINE AMINOTRANSFERASE / ALBUMIN / ALKALINE PHOSPHATASE / ASPARTATE AMINOTRANSFERASE / BLOOD UREA NITROGEN / CARBON DIOXIDE / CHLORIDE / CHOLESTEROL / CREATINE PHOSPHOKINASE / CREATININE / GLUCOSE / LACTATE DEHYDROGENASE / LIPASE / PHOSPHORUS / POTASSIUM / SODIUM / TOTAL BILIRUBIN / TOTAL PROTEIN / URIC ACID: tissue Plasma
[1] = 200 mg/kg, 120 h, dose level Low, time 5 day
[2] = 2625 mg/kg, 72 h, dose level High, time 3 day
[3] = 2625 mg/kg, 120 h, dose level High, time 5 day

O=C(O)c1cccnc1 [NIACIN]
ABSOLUTE BASOPHIL [1]: 0 CELLS/uL
ABSOLUTE EOSINOPHIL [1]: 0 CELLS/uL
ABSOLUTE LYMPHOCYTE [1]: 13805.67 CELLS/uL
ABSOLUTE MONOCYTE [1]: 0 CELLS/uL
ABSOLUTE SEGMENTED NEUTROPHIL [1]: 1394.33 CELLS/uL
BASOPHIL [1]: 0%
EOSINOPHIL [1]: 0%
ERYTHROCYTE COUNT [1]: 5.57 x10E6/uL
HEMATOCRIT [1]: 34.77%
HEMOGLOBIN [1]: 13.77 G/DL
LEUKOCYTE COUNT [1]: 15.2 x10E3/uL
LYMPHOCYTE [1]: 91%
MEAN CORPUSCULAR HEMOGLOBIN [1]: 24.73 pg
MEAN CORPUSCULAR HEMOGLOBIN CONCENTRATION [1]: 39.57 G/DL
MEAN CORPUSCULAR VOLUME [1]: 62.53 fL
MONOCYTE [1]: 0%
NEUTROPHIL [1]: 9%
NUCLEATED RED BLOOD CELLS [1]: 0.33 /100WBC
PLATELET COUNT [1]: 1180.67 x10E3/uL
ALANINE AMINOTRANSFERASE [1]: 55.33 u/L
ALBUMIN [1]: 4.03 G/DL
ALKALINE PHOSPHATASE [1]: 296.33 u/L
ASPARTATE AMINOTRANSFERASE [1]: 77.67 u/L
BLOOD UREA NITROGEN [1]: 12.67 mg/dL
CARBON DIOXIDE [1]: 31.33 mmol/L
CHLORIDE [1]: 101.67 MEQ/L
CHOLESTEROL [1]: 76.33 mg/dL
CREATINE PHOSPHOKINASE [1]: 209 u/L
CREATININE [1]: 0.23 mg/dL
GLUCOSE [1]: 140 mg/dL
LACTATE DEHYDROGENASE [1]: 212 u/L
LIPASE [1]: 13 u/L
PHOSPHORUS [1]: 12.63 mg/dL
POTASSIUM [1]: 6.55 MEQ/L
SODIUM [1]: 145.13 MEQ/L
TOTAL BILIRUBIN [1]: 0.13 mg/dL
TOTAL PROTEIN [1]: 5.93 G/DL
URIC ACID [1]: 1.43 mg/dL
ABSOLUTE BASOPHIL [2]: 0 CELLS/uL
ABSOLUTE EOSINOPHIL [2]: 135 CELLS/uL
ABSOLUTE LYMPHOCYTE [2]: 10224 CELLS/uL
ABSOLUTE MONOCYTE [2]: 258 CELLS/uL
ABSOLUTE SEGMENTED NEUTROPHIL [2]: 1683 CELLS/uL
BASOPHIL [2]: 0%
EOSINOPHIL [2]: 1%
ERYTHROCYTE COUNT [2]: 5.89 x10E6/uL
HEMATOCRIT [2]: 36.17%
HEMOGLOBIN [2]: 14.27 G/DL
LEUKOCYTE COUNT [2]: 12.3 x10E3/uL
LYMPHOCYTE [2]: 84%
MEAN CORPUSCULAR HEMOGLOBIN [2]: 24.23 pg
MEAN CORPUSCULAR HEMOGLOBIN CONCENTRATION [2]: 39.43 G/DL
MEAN CORPUSCULAR VOLUME [2]: 61.33 fL
MONOCYTE [2]: 2%
NEUTROPHIL [2]: 13%
NUCLEATED RED BLOOD CELLS [2]: 0.33 /100WBC
PLATELET COUNT [2]: 1326 x10E3/uL
ALANINE AMINOTRANSFERASE [2]: 45 u/L
ALBUMIN [2]: 3.73 G/DL
ALKALINE PHOSPHATASE [2]: 269.33 u/L
ASPARTATE AMINOTRANSFERASE [2]: 105 u/L
BLOOD UREA NITROGEN [2]: 15 mg/dL
CARBON DIOXIDE [2]: 29 mmol/L
CHLORIDE [2]: 100.33 MEQ/L
CHOLESTEROL [2]: 68.67 mg/dL
CREATINE PHOSPHOKINASE [2]: 532.33 u/L
CREATININE [2]: 0.18 mg/dL
GLUCOSE [2]: 145.67 mg/dL
LACTATE DEHYDROGENASE [2]: 900 u/L
LIPASE [2]: 11.33 u/L
PHOSPHORUS [2]: 12.33 mg/dL
POTASSIUM [2]: 6.2 MEQ/L
SODIUM [2]: 144.73 MEQ/L
TOTAL BILIRUBIN [2]: 0.13 mg/dL
TOTAL PROTEIN [2]: 5.57 G/DL
URIC ACID [2]: 1.47 mg/dL
ABSOLUTE BASOPHIL [3]: 0 CELLS/uL
ABSOLUTE EOSINOPHIL [3]: 0 CELLS/uL
ABSOLUTE LYMPHOCYTE [3]: 15227.67 CELLS/uL
ABSOLUTE MONOCYTE [3]: 166 CELLS/uL
ABSOLUTE SEGMENTED NEUTROPHIL [3]: 1206.33 CELLS/uL
BASOPHIL [3]: 0%
EOSINOPHIL [3]: 0%
ERYTHROCYTE COUNT [3]: 5.68 x10E6/uL
HEMATOCRIT [3]: 36.37%
HEMOGLOBIN [3]: 14.23 G/DL
LEUKOCYTE COUNT [3]: 16.6 x10E3/uL
LYMPHOCYTE [3]: 91.67%
MEAN CORPUSCULAR HEMOGLOBIN [3]: 25.07 pg
MEAN CORPUSCULAR HEMOGLOBIN CONCENTRATION [3]: 39.17 G/DL
MEAN CORPUSCULAR VOLUME [3]: 64 fL
MONOCYTE [3]: 1%
NEUTROPHIL [3]: 7.33%
NUCLEATED RED BLOOD CELLS [3]: 0.33 /100WBC
PLATELET COUNT [3]: 1260.67 x10E3/uL
ALANINE AMINOTRANSFERASE [3]: 55 u/L
ALBUMIN [3]: 4.07 G/DL
ALKALINE PHOSPHATASE [3]: 397.33 u/L
ASPARTATE AMINOTRANSFERASE [3]: 96 u/L
BLOOD UREA NITROGEN [3]: 16.67 mg/dL
CARBON DIOXIDE [3]: 32.33 mmol/L
CHLORIDE [3]: 100.67 MEQ/L
CHOLESTEROL [3]: 55.33 mg/dL
CREATINE PHOSPHOKINASE [3]: 323.67 u/L
CREATININE [3]: 0.2 mg/dL
GLUCOSE [3]: 151 mg/dL
LACTATE DEHYDROGENASE [3]: 666 u/L
LIPASE [3]: 10.33 u/L
PHOSPHORUS [3]: 11.7 mg/dL
POTASSIUM [3]: 6.01 MEQ/L
SODIUM [3]: 145.9 MEQ/L
TOTAL BILIRUBIN [3]: 0.27 mg/dL
TOTAL PROTEIN [3]: 5.7 G/DL
URIC ACID [3]: 1.43 mg/dL
